Molecular target: wild-type human cardiac sodium channel, hNav1.5 (Homo sapiens, UniProt Q14524)
Test: Late INa screening assay (late sodium current, PatchXpress whole cell patch clamp)
Format: cell-based
Details: compound at 10 μM; read-out: Late INa % blk

Sequence of wild-type human cardiac sodium channel, hNav1.5 (Q14524 whole entry): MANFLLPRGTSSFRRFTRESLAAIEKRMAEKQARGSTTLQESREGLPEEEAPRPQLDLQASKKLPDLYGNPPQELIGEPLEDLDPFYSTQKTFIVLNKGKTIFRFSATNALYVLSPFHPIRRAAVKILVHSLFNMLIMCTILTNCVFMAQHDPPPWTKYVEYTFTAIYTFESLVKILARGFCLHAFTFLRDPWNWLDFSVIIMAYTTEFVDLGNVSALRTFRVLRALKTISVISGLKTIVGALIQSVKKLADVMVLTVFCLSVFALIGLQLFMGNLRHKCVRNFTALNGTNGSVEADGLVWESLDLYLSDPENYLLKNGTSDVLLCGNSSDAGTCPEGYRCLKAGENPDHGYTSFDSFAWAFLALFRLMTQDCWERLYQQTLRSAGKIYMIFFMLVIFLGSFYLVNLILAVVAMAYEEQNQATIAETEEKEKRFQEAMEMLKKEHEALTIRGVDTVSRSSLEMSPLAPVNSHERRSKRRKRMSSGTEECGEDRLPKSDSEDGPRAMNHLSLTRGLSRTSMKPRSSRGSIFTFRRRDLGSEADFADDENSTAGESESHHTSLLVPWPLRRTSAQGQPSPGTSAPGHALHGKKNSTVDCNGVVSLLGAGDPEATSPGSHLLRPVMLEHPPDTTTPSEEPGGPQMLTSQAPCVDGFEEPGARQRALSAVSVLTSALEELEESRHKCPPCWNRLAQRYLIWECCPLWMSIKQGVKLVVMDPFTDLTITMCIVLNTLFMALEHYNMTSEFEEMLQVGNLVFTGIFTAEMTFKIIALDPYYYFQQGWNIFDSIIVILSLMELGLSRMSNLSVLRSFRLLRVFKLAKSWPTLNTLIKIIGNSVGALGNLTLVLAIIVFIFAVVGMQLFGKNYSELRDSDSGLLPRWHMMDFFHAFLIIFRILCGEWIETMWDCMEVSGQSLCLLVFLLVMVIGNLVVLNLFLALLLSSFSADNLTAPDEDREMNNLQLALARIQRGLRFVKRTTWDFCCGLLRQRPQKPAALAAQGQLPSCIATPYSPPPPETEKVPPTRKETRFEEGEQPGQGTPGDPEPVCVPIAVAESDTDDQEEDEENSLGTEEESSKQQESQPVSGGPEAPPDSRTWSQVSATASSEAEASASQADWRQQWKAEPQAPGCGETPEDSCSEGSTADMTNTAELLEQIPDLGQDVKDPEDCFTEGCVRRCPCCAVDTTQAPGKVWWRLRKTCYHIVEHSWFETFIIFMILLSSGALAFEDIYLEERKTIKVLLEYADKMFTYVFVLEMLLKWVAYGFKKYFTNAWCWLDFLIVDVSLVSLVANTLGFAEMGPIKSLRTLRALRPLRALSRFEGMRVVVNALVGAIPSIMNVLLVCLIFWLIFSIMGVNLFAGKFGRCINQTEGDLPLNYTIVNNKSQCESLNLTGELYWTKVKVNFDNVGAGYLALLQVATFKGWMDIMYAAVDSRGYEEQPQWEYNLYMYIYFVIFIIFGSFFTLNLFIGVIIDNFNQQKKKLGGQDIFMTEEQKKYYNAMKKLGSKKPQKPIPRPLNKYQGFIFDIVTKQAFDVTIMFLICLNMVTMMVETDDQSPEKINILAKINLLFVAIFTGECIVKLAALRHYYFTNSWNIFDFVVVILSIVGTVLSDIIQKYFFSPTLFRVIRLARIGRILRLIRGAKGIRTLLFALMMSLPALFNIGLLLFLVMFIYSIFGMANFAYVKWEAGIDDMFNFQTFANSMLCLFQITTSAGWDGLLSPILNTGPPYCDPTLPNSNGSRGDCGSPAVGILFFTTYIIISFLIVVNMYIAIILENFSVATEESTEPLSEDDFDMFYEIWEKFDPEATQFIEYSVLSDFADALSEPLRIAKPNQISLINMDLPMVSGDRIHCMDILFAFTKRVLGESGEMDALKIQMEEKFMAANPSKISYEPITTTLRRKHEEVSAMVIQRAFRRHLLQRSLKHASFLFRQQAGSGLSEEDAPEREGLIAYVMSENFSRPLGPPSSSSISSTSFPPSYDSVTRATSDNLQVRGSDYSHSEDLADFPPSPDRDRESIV

| SMILES | inhibition at 10 µM |
| --- | --- |
| CC1=C(C(=O)OCc2ccccc2)C(c2ccccc2-c2ccc(S(C)(=O)=O)cc2)n2nnnc2N1 (stereo not shown) [PT-354, benzyl 5-methyl-7-(4′-(methylsulfonyl)biphenyl-2-yl)-4,7-dihydrotetrazolo[1,5-a]pyrimidine-6-carboxylate] | 64.7% |
| CC1=C(C(=O)OCc2ccccc2)C(c2ccc(S(C)(=O)=O)cc2)n2nnnc2N1 (stereo not shown) [PT-355, benzyl 5-methyl-7-(4-(methylsulfonyl)phenyl)-4,7-dihydrotetrazolo[1,5-a]pyrimidine-6-carboxylate] | 14.8% |
| CSc1ccc(C2C(C(=O)OCc3ccccc3)=C(C)Nc3nnnn32)cc1 (stereo not shown) [PT-356, benzyl 5-methyl-7-(4-(methylthio)phenyl)-4,7-dihydrotetrazolo[1,5-a]pyrimidine-6-carboxylate] | 16.4% |
| CC1=C(C(=O)OCc2ccccc2)C(c2ccc(OC(F)(F)F)cc2)n2nnnc2N1 (stereo not shown) [PT-357, benzyl 5-methyl-7-(4-(trifluoromethoxy)phenyl)-4,7-dihydrotetrazolo[1,5-a]pyrimidine-6-carboxylate] | 19.6% |
| CC1=C(C(=O)OCc2ccccc2)C(c2ccc(C(F)(F)F)cc2)n2nnnc2N1 (stereo not shown) [PT-358, benzyl 5-methyl-7-(4-(trifluoromethyl)phenyl)-4,7-dihydrotetrazolo[1,5-a]pyrimidine-6-carboxylate] | 7.4% |
| CC1=C(C(=O)OCc2ccccc2)C(c2ccc(SC(F)(F)F)cc2)n2nnnc2N1 (stereo not shown) [PT-359, benzyl 5-methyl-7-(4-(trifluoromethylthio)phenyl)-4,7-dihydrotetrazolo[1,5-a]pyrimidine-6-carboxylate] | 21.3% |
| CC1=C(C(=O)OCc2ccccc2)C(c2ccccc2-c2ccc(N3CCOCC3)cc2)n2nnnc2N1 (stereo not shown) [PT-360, benzyl 5-methyl-7-(4′-morpholinobiphenyl-2-yl)-4,7-dihydrotetrazolo[1,5-a]pyrimidine-6-carboxylate] | 7.2% |
| CC1=C(C(=O)OCc2ccccc2)C(c2ccccc2-c2ccc([N+](=O)[O-])cc2)n2nnnc2N1 (stereo not shown) [PT-361, benzyl 5-methyl-7-(4′-nitrobiphenyl-2-yl)-4,7-dihydrotetrazolo[1,5-a]pyrimidine-6-carboxylate] | 41% |
| CC1=C(C(=O)OCc2ccccc2)C(c2cccc3ccccc23)n2ncc(-c3ccccc3)c2N1 (stereo not shown) [PT-362, benzyl 5-methyl-7-(naphthalen-1-yl)-3-phenyl-4,7-dihydropyrazolo[1,5-a]pyrimidine-6-carboxylate] | 14.4% |
| CC1=C(C(=O)OCc2ccccc2)C(c2cncs2)n2nnnc2N1 (stereo not shown) [PT-365, benzyl 5-methyl-7-(thiazol-5-yl)-4,7-dihydrotetrazolo[1,5-a]pyrimidine-6-carboxylate] | 26.9% |
| CC1=C(C(=O)OCc2ccccc2)C(c2cccc3ccccc23)c2cn[nH]c2N1 (stereo not shown) [PT-367, benzyl 6-methyl-4-(naphthalen-1-yl)-4,7-dihydro-1H-pyrazolo[3,4-b]pyridine-5-carboxylate] | 16.1% |
| CC1=C(C(=O)OCc2ccccc2)C(c2ccc3ccccc3c2)c2cn[nH]c2N1 (stereo not shown) [PT-368, benzyl 6-methyl-4-(naphthalen-2-yl)-4,7-dihydro-1H-pyrazolo[3,4-b]pyridine-5-carboxylate] | -4.2% |
| CC1=C(C(=O)OCc2ccccc2)C(c2cccs2)c2cn[nH]c2N1 (stereo not shown) [PT-370, benzyl 6-methyl-4-(thiophen-2-yl)-4,7-dihydro-1H-pyrazolo[3,4-b]pyridine-5-carboxylate] | 24.7% |
| CC1=C(C(=O)OCc2ccccc2)C(c2ccccc2)c2cn[nH]c2N1 (stereo not shown) [PT-372, benzyl 6-methyl-4-phenyl-4,7-dihydro-1H-pyrazolo[3,4-b]pyridine-5-carboxylate] | 20.8% |
| CC1=C(C(=O)OCc2ccccc2)C(c2ccccc2-c2cnc(N)nc2)n2nnnc2N1 (stereo not shown) [PT-375, benzyl 7-(2-(2-aminopyrimidin-5-yl)phenyl)-5-methyl-4,7-dihydrotetrazolo[1,5-a]pyrimidine-6-carboxylate] | 50.7% |
| CC1=C(C(=O)OCc2ccccc2)C(c2ccccc2-c2c(C)noc2C)n2nnnc2N1 (stereo not shown) [PT-376, benzyl 7-(2-(3,5-dimethylisoxazol-4-yl)phenyl)-5-methyl-4,7-dihydrotetrazolo[1,5-a]pyrimidine-6-carboxylate] | 61% |
| CCOC(=O)c1ccc(COc2ccccc2C2C(C(=O)OCc3ccccc3)=C(C)Nc3nnnn32)cc1 (stereo not shown) [PT-377, benzyl 7-(2-(4-(ethoxycarbonyl)benzyloxy)phenyl)-5-methyl-4,7-dihydrotetrazolo[1,5-a]pyrimidine-6-carboxylate] | 30.3% |
| COc1ccc(C2C(C(=O)OCc3ccccc3)=C(C)Nc3nnnn32)c(OCc2ccccc2)c1 (stereo not shown) [PT-380, benzyl 7-(2-(benzyloxy)-4-methoxyphenyl)-5-methyl-4,7-dihydrotetrazolo[1,5-a]pyrimidine-6-carboxylate] | 70.9% |
| CC1=C(C(=O)OCc2ccccc2)C(c2cc(Br)ccc2OCc2ccccc2)n2nnnc2N1 (stereo not shown) [PT-381, benzyl 7-(2-(benzyloxy)-5-bromophenyl)-5-methyl-4,7-dihydrotetrazolo[1,5-a]pyrimidine-6-carboxylate] | 43.7% |

| SMILES | inhibition at 10 µM |
| --- | --- |
| COc1cccc(OCc2ccccc2)c1C1C(C(=O)OCc2ccccc2)=C(C)Nc2nnnn21 (stereo not shown) [PT-382, benzyl 7-(2-(benzyloxy)-6-methoxyphenyl)-5-methyl-4,7-dihydrotetrazolo[1,5-a]pyrimidine-6-carboxylate] | 13.9% |
| CC1=C(C(=O)OCc2ccccc2)C(c2ccccc2OCc2ccccc2)n2nnnc2N1 (stereo not shown) [PT-383, benzyl 7-(2-(benzyloxy)phenyl)-5-methyl-4,7-dihydrotetrazolo[1,5-a]pyrimidine-6-carboxylate] | 79.5% |
| CC1=C(C(=O)OCc2ccccc2)C(c2ccc(C(F)(F)F)cc2C(F)(F)F)n2nnnc2N1 (stereo not shown) [PT-384, benzyl 7-(2,4-bis(trifluoromethyl)phenyl)-5-methyl-4,7-dihydrotetrazolo[1,5-a]pyrimidine-6-carboxylate] | 29.4% |
| COc1ccc(C2C(C(=O)OCc3ccccc3)=C(C)Nc3nnnn32)c(OC)c1 (stereo not shown) [PT-385, benzyl 7-(2,4-dimethoxyphenyl)-5-methyl-4,7-dihydrotetrazolo[1,5-a]pyrimidine-6-carboxylate] | 56.5% |
| CC1=C(C(=O)OCc2ccccc2)C(c2ccccc2Br)n2nnnc2N1 (stereo not shown) [PT-387, benzyl 7-(2-bromophenyl)-5-methyl-4,7-dihydrotetrazolo[1,5-a]pyrimidine-6-carboxylate] | 84.8% |
| CC1=C(C(=O)OCc2ccccc2)C(c2ccccc2-c2ccccc2C(N)=O)n2nnnc2N1 (stereo not shown) [PT-388, benzyl 7-(2′-carbamoylbiphenyl-2-yl)-5-methyl-4,7-dihydrotetrazolo[1,5-a]pyrimidine-6-carboxylate] | 2.7% |
| CC1=C(C(=O)OCc2ccccc2)C(c2ccccc2-c2ccccc2C#N)n2nnnc2N1 (stereo not shown) [PT-390, benzyl 7-(2′-cyanobiphenyl-2-yl)-5-methyl-4,7-dihydrotetrazolo[1,5-a]pyrimidine-6-carboxylate] | 20% |
| CC1=C(C(=O)OCc2ccccc2)C(c2ccccc2F)n2nnnc2N1 (stereo not shown) [PT-391, benzyl 7-(2-fluorophenyl)-5-methyl-4,7-dihydrotetrazolo[1,5-a]pyrimidine-6-carboxylate] | 32.4% |
| COc1cc(-c2nnn[nH]2)ccc1C1C(C(=O)OCc2ccccc2)=C(C)Nc2nnnn21 (stereo not shown) [PT-393, benzyl 7-(2-methoxy-4-(1H-tetrazol-5-yl)phenyl)-5-methyl-4,7-dihydrotetrazolo[1,5-a]pyrimidine-6-carboxylate] | 9.8% |
| COc1cc([N+](=O)[O-])ccc1C1C(C(=O)OCc2ccccc2)=C(C)Nc2nnnn21 (stereo not shown) [PT-395, benzyl 7-(2-methoxy-4-nitrophenyl)-5-methyl-4,7-dihydrotetrazolo[1,5-a]pyrimidine-6-carboxylate] | 48.7% |
| CC1=C(C(=O)OCc2ccccc2)C(c2cc(-c3ccsc3)cs2)n2nnnc2N1 (stereo not shown) [PT-398, benzyl 7-(3,3′-bithiophen-5-yl)-5-methyl-4,7-dihydrotetrazolo[1,5-a]pyrimidine-6-carboxylate] | 18.3% |
| CC1=C(C(=O)OCc2ccccc2)C(c2ccccc2-c2cccc(N)c2)n2nnnc2N1 (stereo not shown) [PT-399, benzyl 7-(3′-aminobiphenyl-2-yl)-5-methyl-4,7-dihydrotetrazolo[1,5-a]pyrimidine-6-carboxylate] | 66.2% |
| CC1=C(C(=O)OCc2ccccc2)C(c2occc2Br)n2nnnc2N1 (stereo not shown) [PT-400, benzyl 7-(3-bromofuran-2-yl)-5-methyl-4,7-dihydrotetrazolo[1,5-a]pyrimidine-6-carboxylate] | 53.2% |
| CC1=C(C(=O)OCc2ccccc2)C(c2ccc(-n3ccnc3)cc2)n2nnnc2N1 (stereo not shown) [PT-402, benzyl 7-(4-(1H-imidazol-1-yl)phenyl)-5-methyl-4,7-dihydrotetrazolo[1,5-a]pyrimidine-6-carboxylate] | 18.3% |
| CC1=C(C(=O)OCc2ccccc2)C(c2ccc(-c3nnn[nH]3)cc2)n2nnnc2N1 (stereo not shown) [PT-403, benzyl 7-(4-(1H-tetrazol-5-yl)phenyl)-5-methyl-4,7-dihydrotetrazolo[1,5-a]pyrimidine-6-carboxylate] | 9.7% |
| CC1=C(C(=O)OCc2ccccc2)C(c2ccccc2-c2ccc(C(C)O)cc2)n2nnnc2N1 (stereo not shown) [PT-404, benzyl 7-(4′-(1-hydroxyethyl)biphenyl-2-yl)-5-methyl-4,7-dihydrotetrazolo[1,5-a]pyrimidine-6-carboxylate] | 80.9% |
| CC1=C(C(=O)OCc2ccccc2)C(c2ccc(OCCN(C)C)cc2)n2nnnc2N1 (stereo not shown) [PT-405, benzyl 7-(4-(2-(dimethylamino)ethoxy)phenyl)-5-methyl-4,7-dihydrotetrazolo[1,5-a]pyrimidine-6-carboxylate] | 18.4% |
| COCCOc1ccc(C2C(C(=O)OCc3ccccc3)=C(C)Nc3nnnn32)cc1 (stereo not shown) [PT-406, benzyl 7-(4-(2-methoxyethoxy)phenyl)-5-methyl-4,7-dihydrotetrazolo[1,5-a]pyrimidine-6-carboxylate] | 20.3% |

Source: patent US20090012103A1, “SUBSTITUTED HETEROCYCLIC COMPOUNDS” (priority 2007, published 2009)
